Test results published in paper PMC7504721, “Targeting the Initiator Protease of the Classical Pathway of Complement Using Fragment-Based Drug Discovery” (Molecules, 2020).

Experiments:
C1r-CUB1 = target: T1, C1r-CUB1 (Homo sapiens, UniProt P00736); experiment: SPR domain mapping, C1r-CUB1 surface; type: binding; conditions: duplicate
T1 construct: The C1r-CUB1 construct corresponds to C1r residues 18–141; made in house; host or cells: E. coli BL21 (DE3)
T1 sequence (P00736 18-141): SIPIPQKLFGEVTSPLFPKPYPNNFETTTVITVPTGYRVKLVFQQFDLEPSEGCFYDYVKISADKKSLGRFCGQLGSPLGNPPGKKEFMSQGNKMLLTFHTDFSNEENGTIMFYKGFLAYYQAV
From the text: (§1) Figure 5 Selectivity and mechanistic analysis of CMP-1611 and CMP-1696. (A) Chemical structure of CMP-1611. (B) Chemical structure of CMP-1696. (C) Dose-dependent inhibition by CMP-1611 and CMP-1696 in a classical pathway-specific ELISA. Data were fit with GraphPad Prism using non-linear regression with a log(inhibitor) vs. response model. […] The CMP-778 inhibitory response could not be fit to a dose-response inhibition model. (D) Complement pathway selectivity of CMP-1611 and CMP-1696. Compounds were assessed for their ability to inhibit activation of complement via the lectin and alternative pathways using single doses of 500 μM compound in triplicate. To ensure only lectin pathway activation, 2% (v/v) C1q-depleted serum (CompTech) was used and mannan was used as the activator. To match serum sources and amounts for this assay, the classical pathway assays were repeated here using serum from CompTech at 2% (v/v) final concentration. Alternative pathway activation assays were performed using 20% (v/v) serum (CompTech), alternative pathway buffers, and C3b detection (see Methods and Materials for details). […] (E) C1r, C1r-CUB1, and C1r-CCP2-SP, were immobilized on an SPR sensor chip and binding responses for 500 μM CMP-1611 and CMP-1696 or 10 μM Futhan were each injected in duplicate over all surfaces. Binding responses were corrected for the molecular weight of each analyte and the immobilization level and molecular weight of each surface ligand. Measures of statistical significance in (D) were obtained by comparison of vehicle control using an unpaired t-test (* p < 0.05). To assess selectivity of CMP-1611 and CMP-1696, we performed pathway-specific ELISA-based inhibition assays. […] However, CMP-1696, but not CMP-1611, blocked lectin pathway activation at a similar level as it did the classical pathway (Figure 5D). To further investigate the divergent selectivity profiles of CMP-1611 and CMP-1696, we first sought to clarify the binding site on C1r for each compound. […] We then injected each compound simultaneously over the three surfaces at 500 μM and measured binding responses. […]

C1r-CCP2-SP = target: T2, C1r-CCP2-SP (Homo sapiens, UniProt P00736); experiment: SPR domain mapping, C1r-CCP2-SP surface; type: binding; conditions: duplicate
T2 sequence (P00736 374-463 limits assumed): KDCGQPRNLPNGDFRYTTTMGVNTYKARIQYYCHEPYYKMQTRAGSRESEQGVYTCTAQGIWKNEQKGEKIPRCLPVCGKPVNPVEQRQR
T2 sequence (P00736 464-705 limits assumed): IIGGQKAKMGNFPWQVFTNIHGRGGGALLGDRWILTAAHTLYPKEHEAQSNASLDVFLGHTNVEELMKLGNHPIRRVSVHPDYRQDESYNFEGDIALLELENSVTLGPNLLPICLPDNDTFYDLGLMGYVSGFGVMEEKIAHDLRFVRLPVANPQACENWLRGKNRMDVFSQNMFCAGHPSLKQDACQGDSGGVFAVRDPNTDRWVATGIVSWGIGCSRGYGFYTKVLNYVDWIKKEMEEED
From the text: as §1

relative SPR binding response, C1r-CUB1 (C1r-CUB1; 500 µM compound)	relative SPR binding response, C1r-CCP2-SP (C1r-CCP2-SP; 500 µM compound)	relative SPR binding response, C1r-CUB1 (C1r-CUB1; 10 µM Futhan)	relative SPR binding response, C1r-CCP2-SP (C1r-CCP2-SP; 10 µM Futhan)	SMILES
low binding	high binding			COCc1nc(-c2ccc(OC3CNC3)cc2)no1 [CMP-1696]
bound weakly	bound weakly			CN(C)c1cc(N2CCCC(N)C2)ncn1 (stereo not drawn) [CMP-1611]
		very little binding response	bound C1r and C1r-CCP2-SP similarly	N=C(N)c1ccc2cc(OC(=O)c3ccc(N=C(N)N)cc3)ccc2c1 [Futhan, reference compound]
